This is an account of results in ChEMBL document CHEMBL3046668, “Phytoene desaturase inhibition by O-(2-phenoxy)ethyl-N-aralkylcarbamates” (J Agric Food Chem, 2003).

SMILES strings stand for the structures.

In the assay the target is 15-cis-phytoene desaturase (Synechococcus elongatus (strain PCC 7942) (Anacystis nidulans R2), UniProt P26294). The experiment in a line: Inhibition of Synechococcus PCC 7942 phytoene desaturase expressed in Escherichia coli JM101 using phytoene as substrate after 8 hr by Dixon plot analysis. To be noted: read-out: I50.
15-cis-phytoene desaturase, sequence (P26294 whole entry): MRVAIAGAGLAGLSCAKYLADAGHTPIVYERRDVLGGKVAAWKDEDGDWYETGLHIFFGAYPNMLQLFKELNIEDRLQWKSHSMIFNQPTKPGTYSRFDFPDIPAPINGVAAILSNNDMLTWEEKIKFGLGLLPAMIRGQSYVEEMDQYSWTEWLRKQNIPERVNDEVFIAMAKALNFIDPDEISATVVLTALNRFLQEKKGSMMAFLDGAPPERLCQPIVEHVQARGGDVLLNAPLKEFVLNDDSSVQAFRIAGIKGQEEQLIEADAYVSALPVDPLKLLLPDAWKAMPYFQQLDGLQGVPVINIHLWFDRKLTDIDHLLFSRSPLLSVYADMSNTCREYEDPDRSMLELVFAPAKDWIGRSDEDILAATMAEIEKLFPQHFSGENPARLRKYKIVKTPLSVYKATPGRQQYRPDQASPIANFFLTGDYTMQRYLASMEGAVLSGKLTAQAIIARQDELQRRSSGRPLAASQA

For the compound `CCC(COc1cccc(C(F)(F)F)c1)OC(=O)NCc1ccccc1` (stereo not drawn), the IC50 amounted to 13 nM.

Consider `CCC(CSc1cccc(Cl)c1)OC(=O)NCc1ccccc1` (stereo not drawn), for which the IC50 turned out to be 5400 nM.

In the case of `CNc1cnn(-c2cccc(C(F)(F)F)c2)c(=O)c1Cl` [NORFLURAZONE], the IC50 came out at 29 nM.
